Measured values taken from patent US20220256902A1, “NOVEL STEVIOL GLYCOSIDE, METHOD FOR PRODUCING SAME, AND SWEETENER COMPOSITION CONTAINING SAME” (SUNTORY HOLDINGS LIMITED, priority 2019, published 2022).

Columns and labels:
[1] = Evaluation of sweetness level: choosing the sugar-added sample of equivalent sweetness intensity; format: in vivo
Experimental: In order to evaluate the sweetness levels of Novel steviol glycosides A and B, samples were prepared by adding sugar to pure water to give Brix of 3.0 to 5.0 in 0.5 increments. Compounds 15 and 17 obtained by the chemical syntheses were used as Novel steviol glycosides A and B, respectively, where 48 mg of each sample was dissolved in 400 mL of pure water to be tested. In addition, samples were also prepared for comparison by dissolving 48 mg of each of Reb.A, Reb.D and Reb.M in 400 mL of pure water.

[2] = Sensory evaluation of taste quality of beverage samples (sweetness on-set, lingering sweet aftertaste, bitterness, lingering bitter aftertaste); format: in vivo
Text: In order to evaluate the taste quality of various steviol glycosides, Reb.A, Reb.D, Reb.M, sugar and Novel steviol glycoside A (Compound 15) were each added to pure water to prepare beverage samples. All of the beverage samples were adjusted to have final sweetness level (Brix) of 5 in terms of sugar (sucrose), and thus the sweetness levels of Reb.A, Reb.D, Reb.M and Novel steviol glycoside A (Compound 15) were 312, 317, 341 and 354, respectively.
(§1) The resulting beverage samples were subjected to sensory evaluation for rating the attributes, which were sweetness on-set, lingering sweet aftertaste, bitterness and lingering bitter aftertaste. Panelists who had been trained about sensory attributes of sweeteners (7 members) evaluated based on the following evaluation criteria. For each evaluation item, the steviol glycosides were scored in 0.5 increments provided that the score of sugar was 3. […]
as §1

[3] = evaluation with Novel steviol glycoside A (Compound 15), restated averages of Table 2
[4] = evaluation with Novel steviol glycoside B (Compound 17), restated averages of Table 3

SMILES: C=C1C[C@@]23CC[C@H]4[C@@](C)(CCC[C@@]4(C)C(=O)O[C@@H]4O[C@H](CO)[C@@H](O)[C@H](O)[C@H]4O)[C@@H]2CC[C@]1(O[C@@H]1O[C@H](CO)[C@@H](O)[C@H](O[C@@H]2O[C@H](CO)[C@@H](O)[C@H](O)[C@H]2O)[C@H]1O[C@@H]1O[C@H](CO)[C@@H](O)[C@H](O)[C@H]1O)C3 [Reb A, rebaudioside A]
- sweetness levels taken for adjusting the beverage samples to Brix 5 in terms of sugar [1, 3]: 312
- sweetness levels taken for adjusting the beverage samples to Brix 5 in terms of sugar [1, 4]: 288

SMILES: C=C1C[C@@]23CC[C@H]4[C@@](C)(CCC[C@@]4(C)C(=O)O[C@@H]4O[C@H](CO)[C@@H](O)[C@H](O[C@@H]5O[C@H](CO)[C@@H](O)[C@H](O)[C@H]5O)[C@H]4O[C@@H]4O[C@H](CO)[C@@H](O)[C@H](O)[C@H]4O)[C@@H]2CC[C@]1(O[C@@H]1O[C@H](CO)[C@@H](O)[C@H](O[C@@H]2O[C@H](CO)[C@@H](O)[C@H](O)[C@H]2O)[C@H]1O[C@@H]1O[C@H](CO)[C@@H](O)[C@H](O)[C@H]1O)C3 [Reb M, rebaudioside M]
- sweetness levels taken for adjusting the beverage samples to Brix 5 in terms of sugar [1, 3]: 341
- sweetness levels taken for adjusting the beverage samples to Brix 5 in terms of sugar [1, 4]: 324

SMILES: C=C1C[C@@]23CC[C@H]4[C@@](C)(CCC[C@@]4(C)C(=O)O[C@@H]4O[C@H](CO)[C@@H](O)[C@H](O)[C@H]4O[C@@H]4O[C@H](CO)[C@@H](O)[C@H](O)[C@H]4O)[C@@H]2CC[C@]1(O[C@@H]1O[C@H](CO)[C@@H](O)[C@H](O[C@@H]2O[C@H](CO)[C@@H](O)[C@H](O)[C@H]2O)[C@H]1O[C@@H]1O[C@H](CO)[C@@H](O)[C@H](O)[C@H]1O)C3 [Reb D, rebaudioside D]
- sweetness levels taken for adjusting the beverage samples to Brix 5 in terms of sugar [1, 3]: 317
- sweetness levels taken for adjusting the beverage samples to Brix 5 in terms of sugar [1, 4]: 310

SMILES: C=C1CC23CCC4C(C)(C(=O)OC5OC(CO)C(O)C(O)C5OC5OCC(O)C(O)C5O)CCCC4(C)C2CCC1(OC1OC(CO)C(O)C(OC2OC(CO)C(O)C(O)C2O)C1OC1OC(CO)C(O)C(O)C1O)C3 (stereo not shown) [Novel steviol glycoside A]
- sweetness level, times higher in average than that of sugar ([1]; average of panelists, 48 mg in 400 mL pure water): about 354 times
- sweetness levels taken for adjusting the beverage samples to Brix 5 in terms of sugar [1, 3]: 354
- sweetness (sensory evaluation, in words) ([2]; beverage samples in pure water, Brix 5 in terms of sugar, vs Reb.A, Reb.D, Reb.M, FIG. 14): less sweetness
- lingering sweet and bitter aftertastes ([2]; general statement in the description): less lingering sweet and bitter aftertastes
